Measured values as given in patent publication US20240216250A1, “COSMETIC PEPTIDES FOR IMPROVING SKIN REJUVENATION” (Lean Life Sciences, Inc., priority 2021, published 2024).
Ends that are not written are not given here.

Key:
3T3-L1 fibroblast = experiment: Collagen and fibronectin production in 3T3-L1 fibroblast by ELISA, with cell number; type: cell-based, mouse; conditions: across treatment groups
Description: Effects of […] (SEQ ID NO: 5) on collagen and fibronectin production are validated in mouse fibroblast. A mouse fibroblast cell line is purchased from American Type Culture Collection (ATCC) to be used in all in vitro studies (3T3-L1 CL-173). The cells are first thawed into two T75 flasks per 1 million cell vial in basal medium I (BMI), which is composed of DMEM (4.5 g/l glucose) supplemented with 10% FBS and 1% Penicillin Streptomycin (P/S). The media is changed the following day, and on day 3, the cells are seeded in 96-well plates (200 μl/well). The peptide was administered to 3T3-L1 fibroblast in five varying concentrations. Collagen and fibronectin produced from the cell was assessed in the cell culture media 3 days after the peptide treatment by ELISA.

prohibitin = target: T1, prohibitin (Mus musculus, UniProt P67778); experiment: ATS/prohibitin binding by ATS magnetic beads, immunoprecipitation and western blot; conditions: fractionated proteins from adipocytes captured on ATS magnetic beads, western blotting (A of FIG. 2)
T1 construct: Fractionated proteins isolated from adipocytes were incubated with the ATS magnetic beads; endogenous in cells; probably 3T3-L1
T1 sequence (P67778 2-272 limits assumed): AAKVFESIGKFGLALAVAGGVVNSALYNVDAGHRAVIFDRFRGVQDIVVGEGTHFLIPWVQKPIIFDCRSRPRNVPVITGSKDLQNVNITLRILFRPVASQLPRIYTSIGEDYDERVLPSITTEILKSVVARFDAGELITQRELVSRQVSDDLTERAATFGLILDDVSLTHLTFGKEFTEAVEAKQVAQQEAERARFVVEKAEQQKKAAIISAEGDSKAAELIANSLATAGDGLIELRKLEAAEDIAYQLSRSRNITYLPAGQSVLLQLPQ
Description: FIG. 2: ATS/prohibitin binding determined by immunoprecipitation and western blot (A of FIG. 2). Location and degree of prohibitin expression in pre- or mature adipocytes. PM, plasma membrane; Cyt, Cytoplasm (B of FIG. 2). Confocal micrographs showing the location of prohibitin in mature- or pre-adipocytes (C of FIG. 2).
It was confirmed that prohibitin shifts its location to the cell membrane as adipogenesis progresses and ATS binds to prohibition. The ATS/prohibitin binding was verified in pre- or mature adipocytes (Won, Y. W. et al. Nat Mater 13, 1157-1164, (2014)). Fractionated proteins isolated from adipocytes were incubated with the ATS magnetic beads and the protein captured by ATS was identified by western blotting. […] Prohibitin is observed in several intracellular locations at varying expression levels depending on the degree of adipogenesis (Wang, P. et al. Cell Mol Life Sci 61, 2405-2417, (2004); Patel, N. et al. Proceedings of the National Academy of Sciences of the United States of America 107, 2503-2508, (2010)). The degree and location of prohibitin expression in pre- or mature adipocytes was determined. […] Confocal microscopy also verified the prohibitin expression on the cell membrane of mature adipocytes (C of FIG. 2). High-level prohibitin expression on the cell membrane of mature adipocytes is important to the ATS/prohibitin interaction.

3T3-L1 mature adipocytes = experiment: Lipid accumulation in 3T3-L1 adipocytes by Oil Red O staining, with cell count; type: cell-based, mouse; conditions: Oil Red O, microscopy, peptides at 100 μM, three times per week for three weeks (Day 21), vs non-treated control
Procedure: FIG. 3: Representative photomicrographs showing Oil Red O-stained mature adipocytes treated with peptides at 100 μM (Day 21). H: Quantitative analysis of the lipids accumulated in the adipocytes (Day 21). Control absorbance: 0.526 (Red line). I: Relative cell counts on day 21.
The effects of the minimal short peptides in blocking lipid accumulation in adipocytes were compared with their parent full-length peptide. After generating five different 3 amino acid fragments (KGG, GGR, GRA, RAK, and AKD) from the original ATS peptide (KGGRAKD (SEQ ID NO:1)), each peptide was administered to 3T3-L1 pre-adipocytes in five varying concentrations. Peptides were treated to the adipocytes three times per week for three weeks. Oil Red O staining was utilized to assess the lipid contents in mature adipocytes in culture. The morphological characteristics of 3T3-L1 mature adipocytes were observed by microscopy. […] Furthermore, the lipids were quantitatively analyzed.
The number of viable cells is counted prior to Oil Red O staining using Cell Counting Kit 8 (Dojindo). This cell viability study allows one to determine potential toxicities of the peptides and compensate for cell number variation-causing artifacts. Oil Red O is dissolved in isopropanol at […] to create a working solution. 12 ml of Oil Red O working solution is mixed with 8 ml dH2O and incubated for 10 minutes. This solution is then filtered using a 0.2 μm syringe filter. Adipocytes seeded on 96-well plates are washed with PBS twice. 10% formaldehyde is added for initial fixation and the plates are incubated for at least 30 minutes. The formaldehyde is removed and the cells are once again washed twice, this time with dH2O. 60% isopropanol is added to each well. The plates are incubated for 5 minutes. The isopropanol is removed from the wells and replaced with Oil Red O working solution. The plates are incubated for an additional 10 minutes. The Oil Red O solution is removed and washed four times with dH2O. Lastly, digital micrographs of the lipid droplets in adipocytes are taken using a light microscope. After the staining protocol, all plates are washed three times with 60% isopropanol. Each time, 5 minutes of gentle rocking was used. The Oil Red O is extracted with 100% isopropanol with gentle rocking for 5 minutes. 200 μl isopropanol per well is used as a background to measure absorbance at 492 nm using a BioTek microplate reader.

3T3-L1 cells = experiment: Fructose, glucose and sucrose concentration in adipocytes (3T3-L1 cell lysates, Fructose Assay Kit); type: cell-based, mouse; conditions: Examples 1-2 to 1-11, same manner as Example 1-1
Procedure: Fructose concentration in 3T3-L1 cell lysates was measured using the Fructose Assay Kit (Abcam, Cambridge, UK). Six-well plates were seeded with 5×10^5 3T3-L1 cells/well one day before treating with 150 μM peptide. After 48 hours of treatment, the cells were harvested and fructose concentrations were assayed according to the manufacturer's instruction.
In order to confirm the effect of peptides on reducing the fructose level in adipocytes, three groups of adipocytes were prepared. Among the three groups, one group was treated with GGR, and another group was treated with RAK. The remaining group was not treated with any peptides and used as a control group. […] Fructose—an intermediate metabolite of glucose—was measured to further probe glucose metabolism. 3T3-L1 cells treated with either peptide had lower fructose concentrations than untreated cells (FIG. 1).
An additional group of adipocytes are treated with one of KGGRAKD, KGG, GGR, GRA, RAK, AKD, DKA, KAR, ARG, RGG, GGK, and DKARGGK in the same manner as Example 1-1.

Binding of ATS to prohibitin (prohibitin) | Substance | Cell number at the end point (toxicity) (3T3-L1 fibroblast) | Number and size of lipid droplets in adipocytes (3T3-L1 mature adipocytes) | Fructose concentration in adipocytes vs control group (3T3-L1 cells)
– | ACTGSTQHQGGGSESPLKRQG | almost the same across the treatment groups | – | –
specifically binds to prohibitin | KGGRAKD | – | smaller than those in the non-treated control | significantly lower than the control group
